Activity data for one compound are collected here from ChEMBL document CHEMBL4390652, “Design, biological evaluation and X-ray crystallography of nanomolar multifunctional ligands targeting simultaneously acetylcholinesterase and glycogen synthase kinase-3” (Eur J Med Chem, 2019).

Experiment [1] deals with Mitogen-activated protein kinase kinase kinase 6 (Homo sapiens) (UniProt O95382). Briefly: Binding affinity to wild-type human partial length ASK2 (M278 to R972 residues) expressed in mammalian expression system assessed as residual binding level at 10 uM by Kinomescan method relative to control.
Experiment [2] addresses Tyrosine-protein kinase Blk (Homo sapiens) (UniProt P51451). Description: Binding affinity to wild-type human partial length BLK (G211 to L503 residues) expressed in bacterial expression system assessed as residual binding level at 10 uM by Kinomescan method relative to control.
Experiment [3] has as its target Calcium/calmodulin-dependent protein kinase type 1B (Homo sapiens) (UniProt Q6P2M8). Description: Binding affinity to wild-type human partial length CAMK1B (W9 to A311 residues) expressed in mammalian expression system assessed as residual binding level at 10 uM by Kinomescan method relative to control.
For experiment [4], the target named is Calcium/calmodulin-dependent protein kinase type II subunit beta (Homo sapiens) (UniProt Q13554). Description: Binding affinity to wild-type human partial length CAMK2B (M1 to Q380 residues) expressed in bacterial expression system assessed as residual binding level at 10 uM by Kinomescan method relative to control.
Experiment [5] deals with Serine/threonine-protein kinase DCLK3 (Homo sapiens) (UniProt Q9C098). Briefly: Binding affinity to wild-type human partial length DCAMKL3 (E140 to V628 residues) expressed in bacterial expression system assessed as residual binding level at 10 uM by Kinomescan method relative to control.
The target of experiment [6] is Dual specificity tyrosine-phosphorylation-regulated kinase 1B (Homo sapiens) (UniProt Q9Y463). Briefly: Binding affinity to wild-type human full length DYRK1B (M1 to S629 residues) expressed in bacterial expression system assessed as residual binding level at 10 uM by Kinomescan method relative to control.
Experiment [7] deals with Receptor tyrosine-protein kinase erbB-4 (Homo sapiens) (UniProt Q15303). Description: Binding affinity to wild-type human partial length ERBB4 (L690 to K994 residues) expressed in bacterial expression system assessed as residual binding level at 10 uM by Kinomescan method relative to control.
The target of experiment [8] is Mitogen-activated protein kinase 6 (Homo sapiens) (UniProt Q16659). Briefly: Binding affinity to wild-type human partial length ERK3 (M1 to P413 residues) expressed in bacterial expression system assessed as residual binding level at 10 uM by Kinomescan method relative to control.
Experiment [9] addresses Mitogen-activated protein kinase 4 (Homo sapiens) (UniProt P31152). Briefly: Binding affinity to wild-type human partial length ERK4 (M1 to L365 residues) expressed in bacterial expression system assessed as residual binding level at 10 uM by Kinomescan method relative to control.
The subject of experiment [10] is Receptor-type tyrosine-protein kinase FLT3 (Homo sapiens), P36888 [UNDEFINED MUTATION]. Description: Binding affinity to human partial length FLT3 ITD/F691L double mutant expressed in bacterial expression system assessed as residual binding level at 10 uM by Kinomescan method relative to control.
Experiment [11] addresses Serine/threonine-protein kinase STK11 (Homo sapiens) (UniProt Q15831). Briefly: Binding affinity to wild-type human full length LKB1 (M1 to Q433 residues) expressed in bacterial expression system assessed as residual binding level at 10 uM by Kinomescan method relative to control.
Experiment [12] addresses Serine/threonine-protein kinase MARK1 (Homo sapiens) (UniProt Q9P0L2). Briefly: Binding affinity to wild-type human partial length MARK1 (Q30 to T341 residues) expressed in bacterial expression system assessed as residual binding level at 10 uM by Kinomescan method relative to control.
For experiment [13], the target named is Mitogen-activated protein kinase kinase kinase 11 (Homo sapiens) (UniProt Q16584). Description: Binding affinity to wild-type human partial length MLK3 (I77 to W399 residues) expressed in bacterial expression system assessed as residual binding level at 10 uM by Kinomescan method relative to control.
Experiment [14] concerns the target Serine/threonine-protein kinase MRCK beta (Homo sapiens) (UniProt Q9Y5S2). Briefly: Binding affinity to wild-type human partial length MRCKB (L56 to S417 residues) expressed in bacterial expression system assessed as residual binding level at 10 uM by Kinomescan method relative to control.
Experiment [15] has as its target Serine/threonine-protein kinase 26 (Homo sapiens) (UniProt Q9P289). Description: Binding affinity to wild-type human full length MST4 (M1 to P416 residues) expressed in mammalian expression system assessed as residual binding level at 10 uM by Kinomescan method relative to control.
The target of experiment [16] is Serine/threonine-protein kinase Nek7 (Homo sapiens) (UniProt Q8TDX7). Description: Binding affinity to wild-type human full length NEK7 (M1 to S302 residues) expressed in bacterial expression system assessed as residual binding level at 10 uM by Kinomescan method relative to control.
Serine/threonine-protein kinase Nek7 (Homo sapiens), sequence (Q8TDX7 whole entry, looked up, the tested form may be a part): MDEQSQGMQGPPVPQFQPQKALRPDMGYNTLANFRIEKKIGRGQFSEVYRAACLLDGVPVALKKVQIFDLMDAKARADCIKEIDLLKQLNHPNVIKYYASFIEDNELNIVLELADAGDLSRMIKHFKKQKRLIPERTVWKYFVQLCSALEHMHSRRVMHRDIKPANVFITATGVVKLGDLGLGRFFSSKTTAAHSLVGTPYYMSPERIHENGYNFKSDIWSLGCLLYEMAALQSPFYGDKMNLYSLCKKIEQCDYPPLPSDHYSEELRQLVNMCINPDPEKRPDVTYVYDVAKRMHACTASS
Experiment [17] addresses Mitogen-activated protein kinase 14 (Homo sapiens) (UniProt Q16539). Briefly: Binding affinity to wild-type human full length p38-alpha (M1 to S360 residues) expressed in bacterial expression system assessed as residual binding level at 10 uM by Kinomescan method relative to control.
For experiment [18], the target named is Serine/threonine-protein kinase PAK 3 (Homo sapiens) (UniProt O75914). Briefly: Binding affinity to wild-type human full length PAK3 (M1 to R544 residues) expressed in bacterial expression system assessed as residual binding level at 10 uM by Kinomescan method relative to control.
Serine/threonine-protein kinase PAK 3 (Homo sapiens), sequence (O75914 whole entry, looked up, the tested form may be a part): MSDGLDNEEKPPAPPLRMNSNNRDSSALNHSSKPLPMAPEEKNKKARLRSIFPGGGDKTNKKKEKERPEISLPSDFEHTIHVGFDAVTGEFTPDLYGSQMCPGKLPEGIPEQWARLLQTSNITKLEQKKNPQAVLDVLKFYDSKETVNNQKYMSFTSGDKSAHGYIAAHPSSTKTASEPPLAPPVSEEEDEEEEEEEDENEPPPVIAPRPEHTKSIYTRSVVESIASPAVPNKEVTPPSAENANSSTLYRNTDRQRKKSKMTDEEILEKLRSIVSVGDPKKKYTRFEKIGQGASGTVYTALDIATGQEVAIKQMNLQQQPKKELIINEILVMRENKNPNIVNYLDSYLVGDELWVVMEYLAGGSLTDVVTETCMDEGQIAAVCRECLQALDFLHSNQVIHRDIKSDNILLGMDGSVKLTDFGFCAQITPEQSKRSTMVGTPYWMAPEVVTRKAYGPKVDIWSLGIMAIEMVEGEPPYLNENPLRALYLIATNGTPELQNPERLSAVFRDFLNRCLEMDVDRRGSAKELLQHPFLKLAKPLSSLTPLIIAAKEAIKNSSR
The target of experiment [19] is 1-phosphatidylinositol 3-phosphate 5-kinase (Homo sapiens) (UniProt Q9Y2I7). Briefly: Binding affinity to wild-type human partial length PIKFYVE (F1512 to C2098 residues) expressed in mammalian expression system assessed as residual binding level at 10 uM by Kinomescan method relative to control.
In experiment [20] the target is Protein kinase C epsilon type (Homo sapiens) (UniProt Q02156). Description: Binding affinity to wild-type human partial length PRKCE (A378 to P737 residues) expressed in mammalian expression system assessed as residual binding level at 10 uM by Kinomescan method relative to control.
Protein kinase C epsilon type (Homo sapiens), sequence (Q02156 whole entry, the tested form may be a part): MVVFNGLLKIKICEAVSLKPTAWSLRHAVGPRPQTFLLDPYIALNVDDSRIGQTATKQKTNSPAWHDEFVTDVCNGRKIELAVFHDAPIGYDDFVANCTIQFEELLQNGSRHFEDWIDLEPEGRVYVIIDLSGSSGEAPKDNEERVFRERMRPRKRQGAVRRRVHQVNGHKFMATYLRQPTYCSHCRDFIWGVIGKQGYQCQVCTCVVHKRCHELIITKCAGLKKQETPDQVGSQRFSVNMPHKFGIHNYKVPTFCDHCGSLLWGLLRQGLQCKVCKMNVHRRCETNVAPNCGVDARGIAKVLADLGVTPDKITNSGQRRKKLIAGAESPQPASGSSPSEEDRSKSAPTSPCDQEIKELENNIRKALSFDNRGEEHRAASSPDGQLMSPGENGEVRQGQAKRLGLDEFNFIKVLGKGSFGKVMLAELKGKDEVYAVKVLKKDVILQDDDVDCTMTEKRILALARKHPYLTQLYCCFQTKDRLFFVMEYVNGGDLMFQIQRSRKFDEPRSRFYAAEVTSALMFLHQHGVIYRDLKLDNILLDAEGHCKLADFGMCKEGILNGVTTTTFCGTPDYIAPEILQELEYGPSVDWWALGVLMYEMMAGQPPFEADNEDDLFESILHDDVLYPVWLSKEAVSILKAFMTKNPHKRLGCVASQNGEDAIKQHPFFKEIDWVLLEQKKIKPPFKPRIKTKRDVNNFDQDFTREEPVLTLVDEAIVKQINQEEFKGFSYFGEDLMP
For experiment [21], the target named is cGMP-dependent protein kinase 2 (Homo sapiens) (UniProt Q13237). Briefly: Binding affinity to wild-type human partial length PRKG2 (S422 to F762 residues) expressed in mammalian expression system assessed as residual binding level at 10 uM by Kinomescan method relative to control.
Experiment [22] concerns the target Serine/threonine-protein kinase RIO2 (Homo sapiens) (UniProt Q9BVS4). Description: Binding affinity to wild-type human partial length RIOK2 (M1 to D313 residues) expressed in mammalian expression system assessed as residual binding level at 10 uM by Kinomescan method relative to control.
The target of experiment [23] is Ribosomal protein S6 kinase alpha-6 (Homo sapiens) (UniProt Q9UK32). Briefly: Binding affinity to wild-type human partial length C-terminal RSK4 kinase domain 2 (I401 to Y711 residues) expressed in bacterial expression system assessed as residual binding level at 10 uM by Kinomescan method relative to control.
In experiment [24] the target is Serine/threonine-protein kinase Sgk1 (Homo sapiens) (UniProt O00141). Briefly: Binding affinity to wild-type human partial length SGK (I60 to L431 residues) expressed in mammalian expression system assessed as residual binding level at 10 uM by Kinomescan method relative to control.

Serine/threonine-protein kinase MRCK beta (Homo sapiens), sequence (Q9Y5S2 whole entry, the tested form may be a part): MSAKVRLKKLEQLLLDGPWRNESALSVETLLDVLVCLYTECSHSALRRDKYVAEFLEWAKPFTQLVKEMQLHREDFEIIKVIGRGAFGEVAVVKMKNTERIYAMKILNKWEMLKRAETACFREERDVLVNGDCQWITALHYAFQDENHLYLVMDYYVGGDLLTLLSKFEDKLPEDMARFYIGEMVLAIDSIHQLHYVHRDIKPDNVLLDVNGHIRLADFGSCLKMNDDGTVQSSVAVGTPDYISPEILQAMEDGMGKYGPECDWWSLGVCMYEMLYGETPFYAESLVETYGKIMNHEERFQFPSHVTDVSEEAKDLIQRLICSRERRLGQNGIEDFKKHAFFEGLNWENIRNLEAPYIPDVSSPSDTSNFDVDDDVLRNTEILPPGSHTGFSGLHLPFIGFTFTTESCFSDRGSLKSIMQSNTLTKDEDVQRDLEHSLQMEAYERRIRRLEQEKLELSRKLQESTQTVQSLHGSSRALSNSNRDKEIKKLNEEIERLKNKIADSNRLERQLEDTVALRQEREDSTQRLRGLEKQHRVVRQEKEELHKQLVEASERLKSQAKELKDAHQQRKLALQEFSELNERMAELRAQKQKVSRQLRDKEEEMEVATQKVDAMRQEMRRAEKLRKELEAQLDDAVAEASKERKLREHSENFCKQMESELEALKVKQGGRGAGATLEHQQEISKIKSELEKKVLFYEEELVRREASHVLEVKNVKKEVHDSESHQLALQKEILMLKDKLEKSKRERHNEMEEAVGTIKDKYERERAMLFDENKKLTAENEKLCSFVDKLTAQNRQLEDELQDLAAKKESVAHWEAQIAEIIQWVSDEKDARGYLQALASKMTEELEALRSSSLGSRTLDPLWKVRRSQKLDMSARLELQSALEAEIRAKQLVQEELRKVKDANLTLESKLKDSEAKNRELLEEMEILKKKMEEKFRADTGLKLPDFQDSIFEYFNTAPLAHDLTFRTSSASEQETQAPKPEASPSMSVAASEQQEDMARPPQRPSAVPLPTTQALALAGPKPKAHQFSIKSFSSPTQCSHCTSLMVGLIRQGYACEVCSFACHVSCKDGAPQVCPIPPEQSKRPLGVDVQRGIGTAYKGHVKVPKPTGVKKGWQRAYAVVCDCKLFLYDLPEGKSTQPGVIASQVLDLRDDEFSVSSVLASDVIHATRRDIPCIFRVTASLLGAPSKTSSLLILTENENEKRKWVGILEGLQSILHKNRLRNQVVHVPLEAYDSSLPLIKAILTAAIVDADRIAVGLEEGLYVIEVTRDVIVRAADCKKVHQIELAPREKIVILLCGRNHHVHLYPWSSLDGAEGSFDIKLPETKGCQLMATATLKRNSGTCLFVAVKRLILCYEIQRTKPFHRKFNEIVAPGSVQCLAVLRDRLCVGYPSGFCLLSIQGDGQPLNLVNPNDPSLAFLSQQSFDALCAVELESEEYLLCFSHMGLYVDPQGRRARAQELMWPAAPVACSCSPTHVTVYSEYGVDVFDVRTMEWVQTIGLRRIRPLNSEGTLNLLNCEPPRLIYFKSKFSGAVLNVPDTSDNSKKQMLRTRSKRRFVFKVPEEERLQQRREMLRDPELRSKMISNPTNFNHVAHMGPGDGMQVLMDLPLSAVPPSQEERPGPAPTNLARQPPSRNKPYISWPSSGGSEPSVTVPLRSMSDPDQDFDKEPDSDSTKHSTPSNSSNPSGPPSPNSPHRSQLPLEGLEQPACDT
Serine/threonine-protein kinase 26 (Homo sapiens), sequence (Q9P289 2-416 limits assumed): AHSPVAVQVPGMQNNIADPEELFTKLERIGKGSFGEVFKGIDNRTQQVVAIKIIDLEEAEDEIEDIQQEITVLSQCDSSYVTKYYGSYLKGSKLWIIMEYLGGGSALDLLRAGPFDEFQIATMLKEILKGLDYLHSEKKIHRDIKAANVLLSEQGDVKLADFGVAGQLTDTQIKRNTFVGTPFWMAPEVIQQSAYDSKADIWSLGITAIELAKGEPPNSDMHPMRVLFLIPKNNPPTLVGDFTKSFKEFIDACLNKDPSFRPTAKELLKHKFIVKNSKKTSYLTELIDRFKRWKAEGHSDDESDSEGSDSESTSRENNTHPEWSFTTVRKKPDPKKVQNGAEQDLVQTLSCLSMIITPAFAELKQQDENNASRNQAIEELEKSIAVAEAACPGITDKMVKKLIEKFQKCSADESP
Serine/threonine-protein kinase MARK1 (Homo sapiens), sequence (Q9P0L2 whole entry, looked up, the tested form may be a part): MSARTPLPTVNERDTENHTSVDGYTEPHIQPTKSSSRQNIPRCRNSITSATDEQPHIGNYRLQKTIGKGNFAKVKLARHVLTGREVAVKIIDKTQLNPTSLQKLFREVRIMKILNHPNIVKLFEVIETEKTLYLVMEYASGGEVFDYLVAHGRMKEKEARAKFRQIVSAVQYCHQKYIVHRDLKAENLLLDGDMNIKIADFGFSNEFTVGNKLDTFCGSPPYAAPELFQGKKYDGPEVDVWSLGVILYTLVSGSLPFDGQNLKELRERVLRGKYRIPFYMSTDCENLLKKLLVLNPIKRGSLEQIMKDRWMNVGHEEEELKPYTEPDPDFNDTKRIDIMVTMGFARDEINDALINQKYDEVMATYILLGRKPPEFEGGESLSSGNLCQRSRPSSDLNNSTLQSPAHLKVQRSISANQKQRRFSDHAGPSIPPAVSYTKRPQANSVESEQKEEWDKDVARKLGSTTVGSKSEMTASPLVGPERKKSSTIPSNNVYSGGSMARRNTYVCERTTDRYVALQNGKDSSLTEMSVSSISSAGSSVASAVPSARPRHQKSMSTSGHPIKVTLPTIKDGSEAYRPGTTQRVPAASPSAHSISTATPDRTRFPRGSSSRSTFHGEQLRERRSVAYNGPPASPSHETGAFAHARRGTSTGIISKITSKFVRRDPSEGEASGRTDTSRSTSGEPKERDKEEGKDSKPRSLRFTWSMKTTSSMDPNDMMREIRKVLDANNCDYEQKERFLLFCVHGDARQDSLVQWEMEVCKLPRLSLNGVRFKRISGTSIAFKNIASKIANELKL
Serine/threonine-protein kinase RIO2 (Homo sapiens), sequence (Q9BVS4 whole entry, looked up, the tested form may be a part): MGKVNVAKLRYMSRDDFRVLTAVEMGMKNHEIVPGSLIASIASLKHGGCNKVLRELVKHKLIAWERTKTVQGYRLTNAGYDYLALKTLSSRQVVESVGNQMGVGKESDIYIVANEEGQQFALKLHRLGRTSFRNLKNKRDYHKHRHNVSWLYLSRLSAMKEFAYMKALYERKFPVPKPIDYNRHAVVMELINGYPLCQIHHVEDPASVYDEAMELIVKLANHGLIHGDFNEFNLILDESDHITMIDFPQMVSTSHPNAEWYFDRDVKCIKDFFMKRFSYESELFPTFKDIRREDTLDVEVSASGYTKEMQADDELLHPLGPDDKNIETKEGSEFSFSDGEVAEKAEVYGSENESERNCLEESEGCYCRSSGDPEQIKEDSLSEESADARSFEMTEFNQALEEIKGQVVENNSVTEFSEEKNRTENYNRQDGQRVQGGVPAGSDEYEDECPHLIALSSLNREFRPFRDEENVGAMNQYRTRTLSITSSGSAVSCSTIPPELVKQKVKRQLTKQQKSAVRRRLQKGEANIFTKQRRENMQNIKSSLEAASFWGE

Take `O=C(Nc1cc(-c2cn(CCNc3c4c(nc5ccccc35)CCCC4)nn2)ccn1)Nc1cccc2c1C1CCCCN1C2=O` (racemic): the Activity in [1] was 87%; in experiment [2], 44%; in [3], 100%; in experiment [4], 84%; in experiment [5] it was 33%; in [6] it was 3.7%. For the same compound, the Activity in experiment [7] came to 87%; in experiment [8], 8.7%; in [9] it was 4.7%; in experiment [10], 0.25%; in experiment [11], 36%; in [12], 50%. The Activity in experiment [13] was determined as 58%; in experiment [14] it was 99%; in experiment [15], 62%; in experiment [16], 27%; in experiment [17] it was 91%; in [18], 40%. The Activity in experiment [19] stood at 15%; in experiment [20], 100%; in [21], 4.4%; in experiment [22] it was 22%; in [23], 57%; in experiment [24], 0.3%.
